These results are taken from patent US20140018432A1, “ELECTROCHEMICAL GENERATION OF CHLORINATED UREA DERIVATIVES” (Hercules Incorporated, priority 2012, published 2014).

Data set [1] deals with microorganisms. Description: Microbiological studies (biocidal activity). The note with it: no details given.
The nature of data set [2]: Stability of aqueous solutions of the chlorinated ureas. Format: physicochemical.

Take `CNC(=O)N(C)Cl` [N-chloro-N,N′-dimethylurea]: the biocidal activity result in data set [1] is “potent biocides”. Besides, the “stability compared with N-chlorourea” value in data set [2] was “significantly more stable than N-chlorourea”. In addition, the stability of solution entry in data set [2] (basic solutions (pH 12 and higher, flow cell without membrane)) was “not stable”; in data set [2] (neutral or acidic environment), “significantly more stable”.
For `NC(=O)NCl` [N-chlorourea], in data set [1], the biocidal activity result is recorded as “potent biocides”.
